Measurements from patent US20230365589A1, “NOVEL AMINE DERIVATIVES” (Sumitomo Pharma Co., Ltd., priority 2020, published 2023).
Where two headings read alike, the source gives them in different places.

Key:
Assay type in all cases: biochemical
[1] = target: T1, DYRK1A (Homo sapiens, UniProt Q13627); assay: Inhibition test on activity of DYRK family, mobility shift assay (MSA): DYRK1A
T1 construct: purchased Carna Biosciences, Inc. 04-130
Experimental: (§1) [Inhibition Test on Activity of DYRK Family (DYRK1A, DYRK1B, DYRK2, and DYRK3)]
(§2) The kinase activity was measured by mobility shift assay (MSA) method using QuickScout Screening Assist™ MSA (commercially available kit manufactured by Carna Biosciences, Inc.). The substrate of the kinase reaction used was an FITC-labeled DYRKtide peptide included in the kit. An assay buffer [20 mM HEPES, 0.01% Triton X-100™, 2 mM dithiothreitol, pH 7.5]was used to create a substrate mixture solution with a substrate (4 μM), MgCl2(20 mM), and ATP (DYRK1A: 100 μM; DYRK1B: 200 μM; DYRK2: 40 μM; and DYRK3: 20 μM). In addition, kinases (DYRK1A: manufactured by Carna Biosciences, Inc., Cat. No. 04-130; DYRK1B: manufactured by Carna Biosciences, Inc., Cat. No. 04-131; DYRK2; manufactured by Carna Biosciences, Inc., Cat. No. 04-132; and DYRK3; manufactured by Carna Biosciences, Inc., Cat. No. 04-133) were diluted with the assay buffer to prepare enzyme solutions (DYRK1A: 0.2 ng/μL; DYRK1B: 0.08 ng/μL; DYRK2: 0.04 ng/μL; and DYRK3: 0.25 ng/μL). The 10 mM solution of the test compound in DMSO was further diluted with DMSO to 10 levels of the concentration (0.00003 mM, 0.0001 mM, 0.0003 mM, 0.001 mM, 0.003 mM, 0.01 mM, 0.03 mM, 0.1 mM, 0.3 mM, and 1 mM), each of which was subjected to 25-fold dilution with the assay buffer to obtain a drug solution (4% DMSO solution). 5 μL of the drug solution or a control solution (4% DMSO-assay buffer), 5 μL of the substrate mixture solution, and 10 μL of the enzyme solution were mixed in the wells of a polypropylene 384-well plate and allowed to react at room temperature for 1 hour, and then the reaction was quenched by adding 60 μL of the termination buffer included in the kit. Subsequently, the quantities of the substrates (S) and the phosphorylated substrate (P) in the reaction solution were measured using LabChip EZ Reader II system (manufactured by Caliper Life Sciences) according to the protocol of the assay kit.
(§3) The heights of the peaks of the “substrate” and the “phosphorylated substrate” were expressed as S and P, respectively, and a blank containing the assay buffer instead of the enzyme solution was also measured.
(§4) The inhibition rate (%) of the test compound was calculated according to the following equation:
(§5) Inhibition rate (%)=(1−(C−A)/(B−A))×100 • wherein, A, B, and C represent P/(P+S) of the blank well, P/(P+S) of the control solution well, and P/(P+S) of the compound-containing well, respectively.
(§6) The IC50 value was calculated via a regression analysis of the inhibition rate and the test compound concentration (logarithmic value).

[2] = target: T2, DYRK2 (Homo sapiens, UniProt Q92630); assay: Inhibition test on activity of DYRK family, mobility shift assay (MSA): DYRK2
T2 construct: purchased Carna Biosciences, Inc. 04-132
T2 sequence (Q92630 74-601 limits assumed): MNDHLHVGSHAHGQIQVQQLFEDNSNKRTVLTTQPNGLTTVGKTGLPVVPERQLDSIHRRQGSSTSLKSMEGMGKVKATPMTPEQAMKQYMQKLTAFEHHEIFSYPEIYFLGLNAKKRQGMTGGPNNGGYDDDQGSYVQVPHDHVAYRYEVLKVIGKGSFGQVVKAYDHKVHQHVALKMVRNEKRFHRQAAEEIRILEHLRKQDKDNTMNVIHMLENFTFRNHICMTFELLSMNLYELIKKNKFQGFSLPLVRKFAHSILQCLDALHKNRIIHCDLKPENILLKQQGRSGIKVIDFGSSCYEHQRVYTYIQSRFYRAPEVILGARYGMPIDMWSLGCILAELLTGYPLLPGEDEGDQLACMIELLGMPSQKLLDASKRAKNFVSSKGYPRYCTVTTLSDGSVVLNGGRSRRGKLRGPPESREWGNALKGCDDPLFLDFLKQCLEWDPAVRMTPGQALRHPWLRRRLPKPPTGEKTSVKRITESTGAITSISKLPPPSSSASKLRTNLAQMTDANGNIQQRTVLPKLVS
Experimental: as §1, §2, §3, §4, §5, §6
(§7) The inhibiting activities of representative compounds of the present invention are shown against DYRK1A, DYRK1B, DYRK2, and DYRK3 in Tables.

[3] = target: T3, DYRK3 (Homo sapiens, UniProt O43781); assay: Inhibition test on activity of DYRK family, mobility shift assay (MSA): DYRK3
T3 construct: purchased Carna Biosciences, Inc. 04-133
T3 sequence (O43781 1-568 isoform O43781-2): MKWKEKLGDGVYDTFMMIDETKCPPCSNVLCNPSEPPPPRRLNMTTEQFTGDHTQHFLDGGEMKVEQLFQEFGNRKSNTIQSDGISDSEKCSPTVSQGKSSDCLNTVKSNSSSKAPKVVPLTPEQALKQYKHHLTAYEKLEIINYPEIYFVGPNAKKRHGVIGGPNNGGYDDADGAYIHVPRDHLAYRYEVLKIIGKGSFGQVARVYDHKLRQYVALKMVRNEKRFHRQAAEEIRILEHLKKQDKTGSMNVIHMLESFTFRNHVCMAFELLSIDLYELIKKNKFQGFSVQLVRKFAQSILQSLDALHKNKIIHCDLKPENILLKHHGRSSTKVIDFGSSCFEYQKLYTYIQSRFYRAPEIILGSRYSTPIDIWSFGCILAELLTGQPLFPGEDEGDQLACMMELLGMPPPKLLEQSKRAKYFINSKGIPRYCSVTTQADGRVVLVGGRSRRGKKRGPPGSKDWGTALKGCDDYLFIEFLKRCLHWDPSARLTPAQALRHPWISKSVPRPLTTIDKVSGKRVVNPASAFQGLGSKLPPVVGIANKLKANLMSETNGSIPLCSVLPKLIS
Experimental: as §1, §2, §3, §4, §5, §6, §7

[4] = read-out: Inhibitory activity DYRK 1A
[5] = read-out: Inhibitory activity DYRK 2
[6] = read-out: Inhibitory activity DYRK 3
[7] = MSA, FITC-labeled DYRKtide peptide, ATP 100 μM, read-out: Inhibitory activity DYRK 1A (IC50 class)
[8] = MSA, FITC-labeled DYRKtide peptide, ATP 40 μM, read-out: Inhibitory activity DYRK 2 (IC50 class)
[9] = MSA, FITC-labeled DYRKtide peptide, ATP 20 μM, read-out: Inhibitory activity DYRK 3 (IC50 class)

| Compound | IC50 [1, 4] [nM] | IC50 [2, 5] [nM] | IC50 [3, 6] [nM] | IC50 [1, 7] [nM] | IC50 [2, 8] [nM] | IC50 [3, 9] [nM] |
| --- | --- | --- | --- | --- | --- | --- |
| C#CCN1CC[C@@H]2NC(=O)N(c3nc4c5c(ccc4s3)OCC5)[C@@H]2C1 (single isomer, unassigned) [Example 114] | < 10 | 100 to 1000 | 100 to 1000 | – | – | – |
| CN1CCC[C@@H]2[C@H](C1)NC(=O)N2c1nc2c3c(ccc2s1)OCC3 [Example 18] | – | – | – | 10 to 100 | 100 to 1000 | 100 to 1000 |
| O=C1N[C@H]2CNC[C@H](F)[C@H]2N1c1nc2c3c(ccc2s1)OCC3 [Example 49] | – | – | – | 10 to 100 | 100 to 1000 | 100 to 1000 |
| CC1(C)C[C@H]2[C@@H](CO1)NC(=O)N2c1nc2c3c(ccc2s1)OCC3 [Example 123] | ≥ 1000 | ≥ 1000 | ≥ 1000 | – | – | – |
| O=C1N[C@@H]2CCNC3(CC3)[C@H]2N1c1nc2c3c(ccc2s1)OCC3 [Example 48] | – | – | – | 10 to 100 | 100 to 1000 | 10 to 100 |
| O=C1N[C@H]2CCNC3(CC3)[C@H]2N1c1nc2c3c(ccc2s1)OCC3 [Example 47] | – | – | – | 100 to 1000 | ≥ 1000 | 100 to 1000 |
| N#C[C@H]1C[C@@H]2[C@H](CO1)NC(=O)N2c1nc2c3c(ccc2s1)OCC3 [Example 127, (3aR,6R,7aR)-1-(7,8-dihydrofuro[3,2-e][1,3]benzothiazol-2-yl)-2-oxooctahydropyrano[3,4-d]imidazole-6-carbonitrile] | < 10 | 100 to 1000 | 100 to 1000 | – | – | – |
| C[C@@H]1NC(=O)N(c2nc3c4c(ccc3s2)OCC4)[C@@H]1CN1CC(F)C1 [Example 118, (4S,5R)-1-(7,8-dihydrofuro[3,2-e][1,3]benzothiazol-2-yl)-5-[(3-fluoroazetidin-1-yl)methyl]-4-methylimidazolidin-2-one] | 10 to 100 | ≥ 1000 | ≥ 1000 | – | – | – |
| N#CCN1C[C@@H]2NC(=O)N(c3nc4c5c(ccc4s3)OCC5)[C@@H]2C1 (racemic) [Example 103, rac-[(3aR,6aS)-1-(7,8-dihydrofuro[3,2-e][1,3]benzothiazol-2-yl)-2-oxohexahydropyrrolo[3,4-d]imidazol-5(1H)-yl]acetonitrile] | 10 to 100 | ≥ 1000 | 100 to 1000 | – | – | – |
| CO[C@H]1C[C@@H]2[C@H](CO1)NC(=O)N2c1nc2c3c(ccc2s1)OCC3 [Example 129, (3aR,6R,7aR)-1-(7,8-dihydrofuro[3,2-e][1,3]benzothiazol-2-yl)-6-methoxyhexahydropyrano[3,4-d]imidazol-2(3H)-one] | 10 to 100 | 100 to 1000 | 100 to 1000 | – | – | – |
| O=C1N[C@H]2CO[C@@H](CO)C[C@H]2N1c1nc2c3c(ccc2s1)OCC3 [Example 144, (3aR,6R,7aR)-1-(7,8-dihydrofuro[3,2-e][1,3]benzothiazol-2-yl)-6-(hydroxymethyl)hexahydropyrano[3,4-d]imidazol-2(3H)-one] | – | – | – | < 10 | ≥ 1000 | 100 to 1000 |
